Tests used:
[1] = system: DERL-7 (IL-2 2.5 ng/mL); assay: percent inhibition of viability; higher = more inhibition; conditions: 72 h
[2] = system: KAI3 (IL-2 2.5 ng/mL); assay: as above; conditions: 72 h
[3] = system: KHYG-1 (IL-2 2.5 ng/mL); assay: as above; conditions: 72 h
[4] = system: NK-92 (IL-2 2.5 ng/mL); assay: as above; conditions: 72 h
[5] = system: NK-YS (IL-2 2.5 ng/mL); assay: as above; conditions: 72 h
[6] = system: NKL (IL-2 2.5 ng/mL); assay: as above; conditions: 72 h
[7] = system: SNK-6 (IL-2 2.5 ng/mL); assay: as above; conditions: 72 h
[8] = system: YT (IL-2 2.5 ng/mL); assay: as above; conditions: 72 h
[9] = system: normal primary NK cells, pool 1 (3 donors) (IL-2 2.5 ng/mL); assay: as above; conditions: 72 h
[10] = system: normal primary NK cells, pool 1 (3 donors), resting (IL-2 0 ng/mL); assay: as above; conditions: 72 h
[11] = system: DERL-7 (IL-2 2.5 ng/mL); assay: drug sensitivity score (DSS) (DSS units); higher = more sensitive; extreme values may be limits of the assay; conditions: 72 h
[12] = system: KAI3 (IL-2 2.5 ng/mL); assay: as above; conditions: 72 h
[13] = system: KHYG-1 (IL-2 2.5 ng/mL); assay: as above; conditions: 72 h
[14] = system: NK-92 (IL-2 2.5 ng/mL); assay: as above; conditions: 72 h
[15] = system: NK-YS (IL-2 2.5 ng/mL); assay: as above; conditions: 72 h
[16] = system: NKL (IL-2 2.5 ng/mL); assay: as above; conditions: 72 h
[17] = system: SNK-6 (IL-2 2.5 ng/mL); assay: as above; conditions: 72 h
[18] = system: YT (IL-2 2.5 ng/mL); assay: as above; conditions: 72 h
[19] = system: normal primary NK cells, pool 1 (3 donors) (IL-2 2.5 ng/mL); assay: as above; conditions: 72 h
[20] = system: normal primary NK cells, pool 1 (3 donors), resting (IL-2 0 ng/mL); assay: as above; conditions: 72 h
[21] = system: normal NK cells expanded with K562-aAPC; assay: percent inhibition of viability; higher = more inhibition; conditions: 72 h, IL-2 2.5 ng/mL
Experimental: (§1)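 Drug sensitivity and resistance testing on K562-aAPC-expanded normal NK cells: 5 concentrations (10-fold steps over a 10,000-fold range), 72 h at 37 °C, viability by CellTiter-Glo normalised to DMSO and benzethonium chloride controls; DSS from the fitted curve.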

[22] = system: IMC-1 (IL-2 20 ng/mL); assay: as above; conditions: 72 h
[23] = system: normal primary NK cells, pool 2 (3 donors) (IL-2 2.5 ng/mL); assay: as above; conditions: 72 h
[24] = system: normal primary NK cells, pool 3 (3 donors) (IL-2 2.5 ng/mL); assay: as above; conditions: 72 h
[25] = system: normal NK cells expanded with K562-aAPC; assay: drug sensitivity score (DSS) (DSS units); higher = more sensitive; extreme values may be limits of the assay; conditions: 72 h; IL-2 2.5 ng/mL
Experimental: as §1

[26] = system: IMC-1 (IL-2 20 ng/mL); assay: as above; conditions: 72 h
[27] = system: normal primary NK cells, pool 2 (3 donors) (IL-2 2.5 ng/mL); assay: as above; conditions: 72 h
[28] = system: normal primary NK cells, pool 3 (3 donors) (IL-2 2.5 ng/mL); assay: as above; conditions: 72 h

COc1cc(C(=O)O)ccc1NC(=O)[C@@H]1N[C@@H](CC(C)(C)C)[C@](C#N)(c2ccc(Cl)cc2F)[C@H]1c1cccc(Cl)c1F [RG7388] (max concentration tested 10000 nM)
percent inhibition of viability [%]
Conditions | [1] | [2] | [3] | [4] | [5] | [6] | [7] | [8] | [9] | [10]
1 nM | -5.33 | 5.19 | -1.57 | 2.22 | 1.18 | 2.91 | 3.57 | 6.01 | 1.86 | -11.7
10 nM | 3.83 | 25.6 | 1.09 | -12.5 | 18.7 | 8.19 | 25.5 | 14.9 | -0.07 | 10.5
100 nM | 51.1 | 39.8 | -3.21 | 8.42 | 53.1 | 7.58 | 70.5 | 38.6 | 41.8 | 85.2
1000 nM | 96.7 | 59.1 | -4.2 | 8.41 | 82.9 | 5.83 | 81.8 | 50.9 | 90.3 | 92.2
10000 nM | 101 | 68.4 | 53.8 | 65.4 | 99.9 | 67 | 92.7 | 86.7 | 99.1 | 93.6

Conditions | drug sensitivity score
[11] | 23.8
[12] | 18.3
[13] | 2.54
[14] | 5
[15] | 23.3
[16] | 4.61
[17] | 27.2
[18] | 16.1
[19] | 21.8
[20] | 28.8

COc1cc(C(=O)O)ccc1NC(=O)[C@@H]1N[C@@H](CC(C)(C)C)[C@](C#N)(c2ccc(Cl)cc2F)[C@H]1c1cccc(Cl)c1F [Idasanutlin] (max concentration tested 10000 nM)
percent inhibition of viability [%]
Conditions | 1 nM | 10 nM | 100 nM | 1000 nM | 10000 nM
[21] | 6.65 | 13.4 | 39.6 | 95.2 | 101
[22] | -3 | 0.8 | -0.27 | 12.7 | 40.4
[23] | -8.25 | -4.67 | 32.8 | 82.7 | 97.8
[24] | -6.26 | -3.17 | 33.5 | 68.8 | 95.6

Conditions | drug sensitivity score
[25] | 21.9
[26] | 3.88
[27] | 19.3
[28] | 17

C[C@]12CC[C@@H]3c4ccc(OC(=O)N(CCCl)CCCl)cc4CC[C@H]3[C@@H]1CC[C@@H]2O [Estramustine] (max concentration tested 10000 nM)
percent inhibition of viability [%]
Conditions | 1 nM | 10 nM | 100 nM | 1000 nM | 10000 nM
[21] | -5.93 | -3.58 | -7.28 | -7.29 | -6.53
[22] | -0.43 | -1.35 | -3.43 | -6.09 | -6.87
[23] | 10 | -2.77 | -6.62 | -4.76 | -8.48
[24] | -8.4 | -4.19 | -7.49 | -10.1 | -9.53

Conditions | drug sensitivity score
[25] | 0
[26] | 0
[27] | 0
[28] | 0

O=C(O)C1(C(=O)O)CCC1.[NH2-].[NH2-].[Pt+2] [Carboplatin] (max concentration tested 100000 nM)
percent inhibition of viability [%]
Conditions | 10 nM | 100 nM | 1000 nM | 10000 nM | 100000 nM
[21] | -8.39 | -5.27 | 0.62 | 19.3 | 100
[22] | -6.21 | -0.67 | 1.27 | 61.7 | 100
[23] | 1.54 | -0.94 | 13 | 16.1 | 60.8
[24] | -8.77 | -1.51 | 10.8 | 18.1 | 64.7

Conditions | drug sensitivity score
[25] | 8.66
[26] | 12.8
[27] | 5.27
[28] | 5.79

CCCC(CCC)C(=O)O [Valproic acid] (max concentration tested 1000000 nM)
percent inhibition of viability [%]
Conditions | 100 nM | 1000 nM | 10000 nM | 100000 nM | 1000000 nM
[21] | -5.06 | -5.78 | -6.14 | 2.07 | 35.9
[22] | -0.33 | -1.48 | -8.1 | -1.23 | 17.4
[23] | -3.47 | -9.08 | -3.52 | 0.62 | 31.7
[24] | -5.69 | -8.36 | -12.2 | -3.8 | 14.2

Conditions | drug sensitivity score
[25] | 2
[26] | 0.34
[27] | 1.5
[28] | 0.1

CC(=O)O[C@]1(C(C)=O)CC[C@H]2[C@@H]3C=C(C)C4=CC(=O)CC[C@]4(C)[C@H]3CC[C@@]21C [Megestrol acetate] (max concentration tested 10000 nM)
percent inhibition of viability [%]
Conditions | 1 nM | 10 nM | 100 nM | 1000 nM | 10000 nM
[21] | -2.74 | -5.98 | 7.94 | 13.9 | 28.7
[22] | -3.51 | -1.23 | -4.32 | -2.13 | 10.4
[23] | -3.39 | 3.68 | -0.74 | 11.2 | 49.3
[24] | -8.34 | -5.63 | 0.83 | 2.52 | 24.3

Conditions | drug sensitivity score
[25] | 2.54
[26] | 0
[27] | 4.38
[28] | 1.28

CC[C@H](C)C(=O)O[C@H]1C[C@H](O)C=C2C=C[C@H](C)[C@H](CC[C@@H](O)C[C@@H](O)CC(=O)O)[C@H]21 [Pravastatin] (max concentration tested 10000 nM)
percent inhibition of viability [%]
Conditions | 1 nM | 10 nM | 100 nM | 1000 nM | 10000 nM
[21] | -2.35 | -3.35 | 0.49 | 5.71 | 4.92
[22] | 1.44 | 3.55 | -0.89 | 2.49 | 1.04
[23] | -8.99 | -4.79 | 10.9 | -9.05 | 10.6
[24] | -14.4 | -6.44 | 1.67 | -7.95 | -0.67

Conditions | drug sensitivity score
[25] | 0
[26] | 0
[27] | 0
[28] | 0

— the supplement of paper PMC5908809
